# According to PubChem BioAssay AID179 (DTP/NCI, 2004):
# Active and inactive are the calls of the source.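 How the source made its calls: active means compounds giving half or more protection of infected cells from virus-caused growth loss, again on retest; inactive means the rest.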 *1 amine or outer side, *2 acyl side, *3 side chain or, on linkers, in order; H or OH if unused. Where a SMILES comes first, the peptide text is derived from it. [ ]: non-standard residue; d: D form. ξ: configuration not given here. X15 = O=C([C@H]1CCC[C@H]1N[*:1])[*:2]; ξW = NC(Cc1c[nH]c2ccccc12)C(=O)O; ξF = NC(Cc1ccccc1)C(=O)O; ξK = NCCCCC(N)C(=O)O; ξT = CC(O)C(N)C(=O)O
# System: CEM cells HIV-1 protection, formazan growth assay
# Assay: NCI AIDS Antiviral Assay
# Conditions: for IC50: measured here: growth of uninfected CEM cells
# Method in brief: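 Screen of anti-HIV-1 activity in human CEM cells using a formazan-based growth measurement at five drug concentrations. Hits with 50% or greater protection were repeated, and confirmation required reproducible complete protection.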
SMILES,EC50,IC50,outcome
CCCCC(CC)CN(Cc1cc(CN(CC(CC)CCCC)CC(CC)CCCC)c(O)c(CN(CC(CC)CCCC)CC(CC)CCCC)c1)CC(CC)CCCC (stereo unspecified),> 200 µM,34.7 µM,
N#Cc1cc2c(cc1C#N)/C(=N\c1cccc(N)n1)N=C2Nc1cccc(N)n1,> 200 µM,4.07 µM,
NC1=NC(c2ccccc2)C2=C(N1)C(=O)N(Cc1ccccc1)C2 (stereo unspecified),> 204 µM,72.4 µM,
C/C=C(\C1CC(=O)N2CCc3c([nH]c4ccccc34)C2C1)[Si](C)(C)C (stereo unspecified),> 14.8 µM,> 14.8 µM,
ClC1=C(Cl)C(Cl)(Cl)c2c3c(c4c(c21)C(Cl)(Cl)C(Cl)=C4Cl)C(Cl)(Cl)C(Cl)=C3Cl,> 8.71 µM,> 8.71 µM,
C=C1C(=O)OC2/C=C(\C=O)CC/C=C(\C)C(O)C[C@@H]12 (stereo partly specified),> 200 µM,2.95 µM,
Cc1cccc(N2CC3CC4C=CC3(C2)O4)c1 (stereo unspecified),> 200 µM,> 200 µM,
Cc1ccc(C=Nc2ccc(SSc3ccc(N=Cc4ccc(C)cc4)cc3)cc2)cc1,> 200 µM,26.3 µM,
N#C/C(=C\c1ccc([N+](=O)[O-])cc1)C(=O)c1ccccc1,> 45.7 µM,24.5 µM,
N#Cc1nc(-c2ccccc2C(=O)O)oc1N,,,inactive
O=C(CC1C(=O)Nc2ccccc2S1=O)Nc1ccccc1 (stereo unspecified),> 22.9 µM,> 22.9 µM,
CCCCc1cc(=O)oc2c3c(c4c(c12)OC(C)(C)CC4)O[C@@H](C)[C@H](C)[C@@H]3O,2.69 µM,10.5 µM,
O=C(NC(=Nc1ccccc1)SCSC(=Nc1ccccc1)NC(=O)c1c(Cl)cccc1Cl)c1c(Cl)cccc1Cl,> 200 µM,14.1 µM,
CC(O)C1NC(=O)C(CCCCN)NC(=O)C(Cc2c[nH]c3ccccc23)NC(=O)C(Cc2ccccc2)NC(=O)[C@H]2CCC[C@H]2NC(=O)C(Cc2ccccc2)NC1=O (stereo partly specified) (cyclo([X15][ξF][ξW][ξK][ξT][ξF])),> 200 µM,> 200 µM,
C=CCOC(OCC=C)/C(Br)=C/C,,,inactive
CC(C)OC(=O)OCSc1ccccc1N=Cc1cccc([N+](=O)[O-])c1,> 200 µM,38 µM,
O=[N+]([O-])C(=C(N1CCCCC1)N1CCCCC1)/C(Cl)=C(\Cl)Br,> 200 µM,1.29 µM,
O=S1(=O)COc2ccccc2-c2ncncc21,47.9 µM,> 200 µM,
CC1OC(n2cnc3c(N)nc(Cl)nc32)C(C)(O)C1O (stereo unspecified),,,inactive
COc1ccc(CCn2ccc(C)n2)c(OC)c1,> 200 µM,> 200 µM,
CN1C(=O)N(C)C(O)C(Cl)(Cl)C1=O (stereo unspecified),> 200 µM,> 200 µM,

SMILES,EC50,IC50,outcome
CC(C)(C)C(=O)O[C@H]1C=C[C@@H](O)[C@@H]2[C@H]1[C@@H]1C=C[C@H]2C1,> 200 µM,22.9 µM,
O=C(O)CCCC(=O)CCCC(=O)O,,,inactive
CC1=C(C(=O)Nc2ccc([N+](=O)[O-])cc2)C(c2ccco2)C(C(=O)Nc2ccc([N+](=O)[O-])cc2)=C(C)N1,> 19.5 µM,11 µM,
CC(C)(C)OC(=O)CN1CCN(CC(=O)N2CCN(C(=O)OCc3ccccc3)CC2)CCN(CC(=O)OC(C)(C)C)CCN(CC(=O)N2CCN(C(=O)OCc3ccccc3)CC2)CC1,> 100 µM,1.29 µM,
O=C1C2CCCCC2C(=O)N1n1c(-c2ccccc2)n[nH]c1=O (stereo unspecified),> 200 µM,> 200 µM,
Nc1nc(N)c2cnnn2n1,> 295 µM,> 295 µM,
CC(C)COC(=O)Sc1ccccc1C(=O)NC(C)C(N)=O (stereo unspecified),1.1 µM,115 µM,
CC(C)N=c1cc2n(-c3ccc(Cl)cc3)c3ccccc3nc-2cc1Nc1ccc(Cl)cc1,> 100 µM,9.12 µM,
C=CN1C(=O)[C@H](Oc2ccccc2)[C@@H]1c1ccccc1,> 135 µM,63.1 µM,
O=C1c2c(Br)sc(Br)c2C(NC(=O)C(F)(F)F)C1O (stereo unspecified),> 200 µM,35.5 µM,
CC12CCC(C3NC(=S)NN=C31)C2(C)C (stereo unspecified),> 302 µM,> 302 µM,
COc1ccc2[nH]cc(C(=O)C(=O)NC34CC5CC(CC(C5)C3)C4)c2c1,> 200 µM,6.03 µM,
CC(C)C(Nc1c2ccccc2[n+](C)c2ccccc12)C(=O)O (stereo unspecified),,,inactive
CCOC(=O)C[P+](c1ccc(Cl)cc1)(c1ccc(Cl)cc1)c1ccc(Cl)cc1,> 200 µM,18.6 µM,
O=C(ON=c1c2ccccc2ccc2ccccc12)c1cc([N+](=O)[O-])cc([N+](=O)[O-])c1,> 200 µM,20.4 µM,
O=c1c2ccccc2c(=O)n2n1C1CCC2C1,> 1100 µM,> 1100 µM,
COc1ccc(/C=c2/sc3n(c2=O)NC2(CCC(C)CC2)NN=3)cc1 (stereo unspecified),,,inactive
N#Cc1ccsc1C#N,> 200 µM,> 200 µM,
O[C@@H]1[C@H]2CC(OCc3ccccc3)C[C@H]2C[C@@H]1O (stereo partly specified),> 1000 µM,> 1000 µM,
CCOC(=O)Cc1csc2[n+]1C(=O)/C(=C/c1cccc(OC)c1O)S2,> 200 µM,174 µM,
CC(=O)NS(=O)(=O)c1ccc(NC(=O)c2ccccc2SSc2ccccc2[N+](=O)[O-])cc1,8.91 µM,30.9 µM,

SMILES,EC50,IC50,outcome
CC(=O)OC1CC[C@@]2(C)C(C1)CC(OC(C)=O)[C@@H]1C2CC(OC(C)=O)[C@]2(C)C(C(C)CC=C(c3ccc(Cl)cc3)c3ccc(Cl)cc3)CCC12 (stereo partly specified),> 200 µM,57.5 µM,
N/N=C(/Cc1ccccc1)NNO,> 525 µM,174 µM,
CCOC(=O)/C(C#N)=C/c1cccc(Br)c1,,,inactive
COC(=O)C1CCC(=S)N1C(C)=O (stereo unspecified),> 200 µM,> 200 µM,
COC(=O)[C@H](C)N(C)C(=O)[C@H](C)N1[C@@H](c2ccccc2)COC1(C)C,> 200 µM,> 200 µM,
Cc1ncc([N+](=O)[O-])n1CC(O)CCl (stereo unspecified),> 200 µM,> 200 µM,
O=C(CC1C(=O)Nc2ccccc2S1=O)Nc1cccc(Cl)c1 (stereo unspecified),> 20.9 µM,> 20.9 µM,
CCOC(=O)[C@H]1C[C@@H](C(=O)c2ccccc2)N2N=C(c3ccc(Br)cc3)C=C[C@H]12,> 100 µM,> 100 µM,
CN1CCN(C(=S)N(C(=O)c2ccco2)C2CCCCC2)CC1,> 741 µM,631 µM,
CN(C)c1ccc(/C=C(\C#N)c2ccccc2Cl)cc1,> 15.8 µM,4.47 µM,
CC(=O)Nc1ccc(/C=C2\SC(=S)N(/C=C(\C(C)=O)C(N)=O)C2=O)cc1,> 200 µM,72.4 µM,
O=c1cnn(C2OC(CO)C(F)C2F)c(=O)[nH]1 (stereo unspecified),> 363 µM,> 363 µM,
N#CC(C#N)=C1SC(=Nc2ccccc2)C(=Nc2ccccc2)N1c1ccccc1,> 200 µM,1 µM,
Clc1cccc2[nH]c(-c3ccncc3)nc12,> 200 µM,> 200 µM,
N#CNC1=NCCC(=O)N1CCc1c[nH]c2ccccc12,70.8 µM,> 200 µM,
CCOC(=O)C1N(S(=O)(=O)c2ccc(C)cc2)CCC12C(c1ccc(OC)cc1)NC1CCCCC12 (stereo unspecified),,,inactive
O=S1(=O)c2ccccc2S(=O)(=O)c2ccccc21,87.1 µM,> 200 µM,
CCC(NC(=O)c1ccccc1SC(=O)CCCC[n+]1ccccc1)C(N)=O (stereo unspecified),> 3.8 µM,,
O=c1/c(=C\c2ccccc2Cl)sc2n1CCN=2,,,inactive
CCCCNC(=S)Nc1nc(C(=O)NNC(=S)NC2CCCCC2)cs1,> 200 µM,170 µM,
O=C(O/C=C\OC1CCCC1(c1ccccc1)c1ccccc1)c1ccccc1 (stereo unspecified),> 200 µM,3.8 µM,

SMILES,EC50,IC50,outcome
C[C@]12OC(=O)[C@]3(O)CC[C@H]4[C@@H](C[C@@H](O)[C@@]5(Cl)CC=CC(=O)[C@]45C)[C@]45OCC6C(=O)O[C@@H]1C[C@@]6(C)[C@H](C4=O)[C@@]32O5 (stereo partly specified),> 2 µM,0.871 µM,
Cc1nnc2sc3ccccc3n12,,,inactive
COc1cc2cc3c4cc(OC)c(OC)cc4cc[n+]3c(C)c2cc1OC (tested in a mixture with another compound),> 93.3 µM,4.17 µM,
COc1cc2c(c(OC)c1OC)-c1ccc(SC)c(=O)cc1C(NC(=O)c1ccccc1)CC2 (stereo unspecified),> 2 µM,0.000708 µM,
COc1c(OC2OC(CO)C(O)C(O)C2O)cc2c(c1OC)-c1ccc(SC)c(=O)cc1[C@@H](NC(C)=O)CC2 (stereo partly specified),,,inactive
CCOC(C)C(/C=N/NC(N)=S)=NNC(N)=S (stereo unspecified),> 20 µM,1.86 µM,
COc1ccc(-n2c(SC(CN3CCOCC3)CN3CCCC3=O)nc3ccccc3c2=O)cc1 (stereo unspecified),> 200 µM,56.2 µM,
C=C1CC2OC2(C(=O)O[C@H]2CCC3[C@@H]4CCC5=CC(=O)CC[C@]5(C)C4CC[C@@]32C)C1=O (stereo partly specified),> 200 µM,7.24 µM,
O=[N+]([O-])C(=C1NCCN1)/C(Cl)=C(\Cl)Br,> 200 µM,16.6 µM,
CC(C)(C)OC(=O)N(CCCCNC(=O)C(F)(F)F)CCCNC(=O)C(F)(F)F,> 200 µM,> 200 µM,
CN(C)CCCN1CCC2(CCCCC2)CC1,,,inactive
CN(C)CCN(C)C(=O)C1CCCN1C(=O)OCc1ccccc1 (stereo unspecified),> 759 µM,46.8 µM,
CC(=O)/C(=C\c1ccccc1O)C(=O)Nc1ccccc1C,> 33.9 µM,22.4 µM,
Cc1ccnc2sc3ccccc3c(=O)c12,> 200 µM,37.2 µM,
CC(CCC[C@H](C)CO)[C@H]1[C@@H](O)C(O)C2[C@@H]3C[C@@H](O)C4(O)C[C@@H](O)CC[C@]4(C)C3CC[C@@]21C (stereo partly specified),> 200 µM,107 µM,
COc1cc(C2c3cc4c(c(O)c3C[C@H]3COC(=O)[C@@H]23)OCO4)cc(OC)c1O (stereo partly specified),> 200 µM,0.0631 µM,
CSc1n[nH]c(NC(=O)c2ccccc2Br)n1,> 575 µM,427 µM,
CC(C)(O)c1cc2c(cc1C(C)(C)O)-c1ccccc1-2,> 200 µM,> 200 µM,
CCc1n[nH]c(=O)[nH]1,> 200 µM,> 200 µM,
